Assay results from ChEMBL document CHEMBL1201862, “PubChem BioAssay data set” (2004).
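1) Cells in 96-well plates. 2) Compound, 48 h, 5 concentrations. 3) Linear interpolation between surrounding doses. 4) Unreached endpoint = highest concentration. GI50: concentration for 50% inhibition of growth.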 Activity calls are given as the source filed them. No stated cut-off is given here; in the data, active = GI50 up to about 1.1 µM and inactive = higher.

Columns and labels:
Assay in all cases: NCI anticancer screen, dose series, 48 h
CAKI-1 = tested on: CAKI-1
CCRF-CEM = tested on: CCRF-CEM
DU-145 = tested on: DU-145
EKVX = tested on: EKVX
HCT-116 = tested on: HCT-116
HOP-92 = tested on: HOP-92
KM12 = tested on: KM12
MDA-MB-231 = tested on: MDA-MB-231
MDA-MB-435 = tested on: MDA-MB-435
MDA-N = tested on: MDA-N
Malme-3M = tested on: Malme-3M
NCI/ADR-RES = tested on: NCI/ADR-RES
OVCAR-5 = tested on: OVCAR-5
RXF 393 = tested on: RXF 393
SK-MEL-2 = tested on: SK-MEL-2
SNB-19 = tested on: SNB-19
SR = tested on: SR
T47D = tested on: T47D
U-251 = tested on: U-251
UO-31 = tested on: UO-31

| Compound | GI50 (CAKI-1) | GI50 (CCRF-CEM) | GI50 (DU-145) | GI50 (EKVX) | GI50 (HCT-116) | GI50 (HOP-92) | GI50 (KM12) | GI50 (MDA-MB-231) | GI50 (MDA-MB-435) | GI50 (MDA-N) | GI50 (Malme-3M) | GI50 (NCI/ADR-RES) | GI50 (OVCAR-5) | GI50 (RXF 393) | GI50 (SK-MEL-2) | GI50 (SNB-19) | GI50 (SR) | GI50 (T47D) | GI50 (U-251) | GI50 (UO-31) |
| --- | --- | --- | --- | --- | --- | --- | --- | --- | --- | --- | --- | --- | --- | --- | --- | --- | --- | --- | --- | --- |
| CN(C)c1cccc2c(S(=O)(=O)NCCN)cccc12 [DANSYL ETHYLENEDIAMINE] | > 100 µM (inactive) | > 100 µM (inactive) | > 100 µM (inactive) | > 100 µM (inactive) | 35.2 µM (inactive) | > 100 µM (inactive) | > 100 µM (inactive) | > 100 µM (inactive) | > 100 µM (inactive) | > 100 µM (inactive) | > 100 µM (inactive) | > 100 µM (inactive) | > 100 µM (inactive) | 41.1 µM (inactive) | > 100 µM (inactive) | > 100 µM (inactive) | > 100 µM (inactive) | > 100 µM (inactive) | > 100 µM (inactive) | 98.9 µM (inactive) |
| C=CC1(O)CCCC=C1COCc1ccccc1 (stereo not given) | > 100 µM (inactive) | 43.6 µM (inactive) | > 100 µM (inactive) | > 100 µM (inactive) | 51.3 µM (inactive) | 52 µM (inactive) | 50.2 µM (inactive) | > 100 µM (inactive) | 47.5 µM (inactive) | 73.8 µM (inactive) | > 100 µM (inactive) | > 100 µM (inactive) | > 100 µM (inactive) | > 100 µM (inactive) | > 100 µM (inactive) | > 100 µM (inactive) | 24.8 µM (inactive) | 64 µM (inactive) | > 100 µM (inactive) | 45.1 µM (inactive) |
| Cc1cc(NCc2ccccc2)c2ccccc2[n+]1CCCCCCCCCC[n+]1c(C)cc(NCc2ccccc2)c2ccccc21.[O-][Cl+3]([O-])([O-])[O-].[O-][Cl+3]([O-])([O-])[O-] | 1.44 µM (inactive) | 0.377 µM (active) | 0.692 µM (active) | 1.19 µM (inactive) | 0.324 µM (active) | 0.649 µM (active) | 0.191 µM (active) | 0.472 µM (active) | 0.39 µM (active) | 0.374 µM (active) | 4.06 µM (inactive) | 3.15 µM (inactive) | 2.19 µM (inactive) | 1.96 µM (inactive) | 0.458 µM (active) | 0.252 µM (active) | 0.223 µM (active) | 0.321 µM (active) | 0.0964 µM (active) | 1.86 µM (inactive) |
| COc1cc2c(c(OC)c1OC)-c1ccc(SC)c(=O)cc1C(NC=O)CC2 (stereo not given) | 0.0183 µM (active) | 0.015 µM (active) | < 0.01 µM (active) | 3.6 µM (inactive) | < 0.01 µM (active) | < 0.01 µM (active) | < 0.01 µM (active) | < 0.01 µM (active) | < 0.01 µM (active) | < 0.01 µM (active) | < 0.01 µM (active) | 0.0393 µM (active) | 0.164 µM (active) | 0.0463 µM (active) | < 0.01 µM (active) | 0.0344 µM (active) | < 0.01 µM (active) | 54.1 µM (inactive) | < 0.01 µM (active) | 0.0188 µM (active) |
| COCOC1/C=C/CCCC#C[C@H](C)C(=O)CC1 (stereo not given in full) | 11.5 µM (inactive) | 3.13 µM (inactive) | 14.6 µM (inactive) | 10.4 µM (inactive) | 2.33 µM (inactive) | 4.4 µM (inactive) | 4.85 µM (inactive) | 4.25 µM (inactive) | 7 µM (inactive) | 11.4 µM (inactive) | 6.68 µM (inactive) | 11.8 µM (inactive) | 7.38 µM (inactive) | 8.41 µM (inactive) | 15 µM (inactive) | 17.9 µM (inactive) | 3.46 µM (inactive) | 9.04 µM (inactive) | 12.2 µM (inactive) | 14.8 µM (inactive) |
| COc1cc(C[C@H]2c3cc(OC)c(OC)cc3CCN2C)c(Oc2cc3c(cc2OC)-c2c(OC)c(OC)cc4c2[C@H](C3)N(C)CC4)cc1OC [THALICARPINE] | 6.22 µM (inactive) | 8.99 µM (inactive) | 14 µM (inactive) | 12.9 µM (inactive) | 4.83 µM (inactive) | 1.78 µM (inactive) | 5.18 µM (inactive) | 4.13 µM (inactive) | 5.16 µM (inactive) | 4.13 µM (inactive) | 9.44 µM (inactive) | 11.3 µM (inactive) | 10.5 µM (inactive) | 3.05 µM (inactive) | 10 µM (inactive) | 16.7 µM (inactive) | 5.08 µM (inactive) | 10.1 µM (inactive) | 3.9 µM (inactive) | 4.66 µM (inactive) |
| CC(Oc1ccccc1Cl)C(=O)NN1C(=O)CSC1c1ccc(Cl)cc1 (stereo not given) | 23.6 µM (inactive) | 0.17 µM (active) | 18.2 µM (inactive) | 26.8 µM (inactive) | 14.5 µM (inactive) | 20 µM (inactive) | 18.1 µM (inactive) | 17.3 µM (inactive) | 16.4 µM (inactive) | 15.2 µM (inactive) | 27 µM (inactive) | 23.9 µM (inactive) | 22.8 µM (inactive) | 17.3 µM (inactive) | 21.9 µM (inactive) | 21.7 µM (inactive) | < 0.01 µM (active) | 20.1 µM (inactive) | 17.8 µM (inactive) | 35.1 µM (inactive) |
| CNC(=S)N/N=C(\C)c1cc(OC)ccc1O | > 100 µM (inactive) | > 27.9 µM (inactive) | > 100 µM (inactive) | > 100 µM (inactive) | > 100 µM (inactive) | > 100 µM (inactive) | > 100 µM (inactive) | > 100 µM (inactive) | > 78.9 µM (inactive) | > 100 µM (inactive) | > 100 µM (inactive) | 28.6 µM (inactive) | > 100 µM (inactive) | > 100 µM (inactive) | > 100 µM (inactive) | > 100 µM (inactive) | 43.5 µM (inactive) | > 100 µM (inactive) | > 100 µM (inactive) | > 100 µM (inactive) |
| N=C(N)N/N=C\c1ccc(C2CCNCC2)cc1 | > 100 µM (inactive) | > 100 µM (inactive) | > 100 µM (inactive) | > 100 µM (inactive) | > 100 µM (inactive) | > 100 µM (inactive) | > 100 µM (inactive) | > 100 µM (inactive) | > 100 µM (inactive) | > 100 µM (inactive) | > 100 µM (inactive) | > 100 µM (inactive) | > 100 µM (inactive) | > 100 µM (inactive) | > 100 µM (inactive) | > 100 µM (inactive) | > 100 µM (inactive) | > 100 µM (inactive) | > 100 µM (inactive) | > 100 µM (inactive) |
| CCN1CCC(CNC(=O)c2ccc(N)cc2)N1CC (stereo not given) | > 100 µM (inactive) | > 100 µM (inactive) | > 100 µM (inactive) | > 100 µM (inactive) | > 100 µM (inactive) | > 100 µM (inactive) | > 100 µM (inactive) | > 100 µM (inactive) | > 100 µM (inactive) | > 100 µM (inactive) | > 100 µM (inactive) | > 100 µM (inactive) | > 100 µM (inactive) | > 100 µM (inactive) | > 100 µM (inactive) | > 100 µM (inactive) | > 100 µM (inactive) | > 100 µM (inactive) | > 100 µM (inactive) | > 100 µM (inactive) |
| COc1ccc2c3c1OC1C4(CCC5C(C2)N(CC2CC2)CCC351)OCCO4 (stereo not given) | > 100 µM (inactive) | > 100 µM (inactive) | > 100 µM (inactive) | > 100 µM (inactive) | > 100 µM (inactive) | > 100 µM (inactive) | > 100 µM (inactive) | > 100 µM (inactive) | > 100 µM (inactive) | > 100 µM (inactive) | > 100 µM (inactive) | > 100 µM (inactive) | > 100 µM (inactive) | > 100 µM (inactive) | > 100 µM (inactive) | > 100 µM (inactive) | > 100 µM (inactive) | > 100 µM (inactive) | > 100 µM (inactive) | > 100 µM (inactive) |
